Test results taken from PMC8953427, “Enantioselectivity of Pentedrone and Methylone on Metabolic Profiling in 2D and 3D Human Hepatocyte-like Cells” (Pharmaceuticals, 2022).

Legend:
2D-HLCs = experiment: Metabolite formation in 2D-HLCs by GC-MS; assay type: in vitro ADME, human; details: 1 mM, 6 h
Method: (§1) Regarding the study of methylone and pentedrone metabolite biosynthesis, in 2D-HLCs and 3D-HLCs, at the D17 of the HLCs differentiation, the cells were seeded in 6-well plates in 1 mL of culture medium at a density of 2.0 × 10^5 cells/well and 5.0 × 10^5 cells/well in 2D and 3D cultures, respectively. At D34, 2D-HLCs and 3D-HLCs were exposed to 1 mM of each enantiomer diluted in IMDM. Upon 6 h of incubation, the IMDM was removed and the pellets were quenched with 2 mL of ice-cold acetonitrile and scraped. The quenched solutions were centrifuged for 10 min at 4 °C. After the addition of methcathinone (internal standard) 100 µg/mL, the supernatants were derivatized with TFAA and analyzed by GC–MS [2, 41].
(§2) To study pentedrone and methylone metabolic profiles, we set up a methodology for the identification of pentedrone and methylone phase I metabolites based on a GC–MS methodology developed by Araujo et al. and Uralets et al. with some adaptations. Briefly, samples from the metabolic assays (200 μL) were evaporated to dryness under nitrogen flow. Then, 50 µL of ethyl acetate and 50 µL of TFAA (derivatizing agent) were added to the dried residue. Incubation was performed at 65 °C for 15 min. After cooling to room temperature, the extract was dried under nitrogen flow. The residue obtained was dissolved in 100 μL of ethyl acetate, and 2 μL was injected into the GC–MS apparatus.
(§3) GC–MS analysis was performed with a 436-GC model (Bruker Daltonics, Billerica, MA, USA) coupled to an EVOQ triple quadrupole mass spectrometer (Bruker Daltonics) and a Bruker MS workstation software version 8.2. The chromatographic separation was accomplished using a fused silica capillary column (Rxi-5Sil MS; 30 m × 0.25 mm × 0.25 μm; Restek Corporation, U.S., Bellefonte, PA, USA). The carrier gas was helium C-60 (Gasin, Portugal), at a constant flow of 1 mL/min. Injections were performed in split mode, with a ratio of 1/20. The injector port was heated to 250 °C. The initial column temperature was 80 °C, followed by a temperature increase of 15 °C/min to 150 °C and 10 °C/min to 300 °C. The MS detector was operated in EI mode (70 eV). The temperature of the transfer line, manifold and EI were 280, 40, and 270 °C, respectively. Data acquisition was performed in full scan mode with a mass range between 50 and 800 m/z at a scan rate of 8 scans/s. The emission current was 40 µA. Ionization was maintained off during the first 1.5 min to avoid solvent overloading. Total separation run time was 20 min.
The analysis was initially performed in full scan mode. […] For that, specific metabolites of methylone and pentedrone, already identified in previous studies, were selected to postulate their mass fragmentation according to their chemical structures (Figure 11) for posterior analysis using the specific ions (m/z in SIM mode) to identify and confirm the metabolite peaks. In SIM mode the selected m/z ions were: IS—m/z 77, 105, 110, and 154; methylone—m/z 121, 149, 154, and 303; nor-methylone—m/z 121, 140, 149, 168, 289, and 260; dihydromethylone—m/z 121, 154, 247, 280, and 401; DHMC—m/z 154, 182, 209, 237, and 391; N-hydroxymethylone—m/z 121, 149, 170, 198, and 319; nor-pentedrone—m/z 77, 105, 126, 168, and 273; dihydropentedrone—m/z 140, 182, 203, 272, and 385; and pentedrone—m/z 77, 105, 140, and 182.

SH-SY5Y cells = system: SH-SY5Y cells; parameters: method as in PMID 33609514; details: cited from earlier work
3D-HLCs = experiment: Metabolite formation in 3D-HLCs by GC-MS; assay type: in vitro ADME, human; details: 1 mM, 6 h
Method: as §1, §2, §3
The analysis was initially performed in full scan mode. […]

[1] = system: 3D-HLCs (human stem-cell-derived hepatocyte-like cells); experiment: Cell viability (CellTiter-Glo 3D) in 3D spheroid HLCs; assay type: cell-based; details: 24 h; for concentrations at which cytotoxicity was observed: racemate, 3D-HLCs, compared to control cells
Method: (§4) The hnMSCs isolated from human umbilical cord stroma were fully characterized as described elsewhere and expanded in Eagle’s minimum essential medium—alpha modification (α-MEM) supplemented with 10% (v/v) of fetal bovine serum (FBS; Gibco, Paisley, UK). For generating HLCs, a three-step differentiation protocol was applied to hnMSCs, as detailed previously. Briefly, hnMSCs were seeded at a density of 1.5 × 10^5 cells/cm^2 in a rat-tail collagen (0.2 mg/mL) coated surface plates. At day 17 (D17) of differentiation, cells were trypsinized and reinoculated in Iscove’s modified Dulbecco’s medium (IMDM) with 8 ng/mL oncostatin M (OSM; Peprotech, Rocky Hill, NJ, USA), 1 µM dexamethasone, 1% dimethyl sulfoxide (DMSO) and 1% insulin-transferrin-selenium solution (Gibco, Grand Island, NY, USA), 20 µM of 5-azacytidine, and 5% (v/v) FBS into (i) ultra-low attachment (ULA; VWR International, Radnor, PA, USA) plates (5 × 10^5 cells/mL) to obtain a 3D spheroid culture or (ii) 2D culture plates pre-coated with collagen (2 × 10^4 cells/cm^2). Medium was changed 24 h after inoculation to remove 5-azacytidine and FBS. Cells were maintained until D34 in this medium, which was replaced every 3 days.
(§5) The cytotoxicity of the racemic mixtures (0.25, 0.5, 1.0, 2.0, 3.0, 4.0, 6.0, 8.0, 10.0, and 20.0 mM) and enantiomers (0.5 and 1.0 mM) of pentedrone and methylone were evaluated in both 2D monolayer and 3D spheroid cultures of HLCs, maintained as described above with slight changes. Briefly, at D17 of differentiation, cells were seeded in 96-well plates in 200 μL of culture medium at a density of 6.4 × 10^3 cells/well and 1.6 × 10^4 cells/well in 2D and 3D cultures, respectively. At D34, HLCs cultured in 2D and 3D were exposed to the abovementioned racemic mixtures and enantiomers diluted in IMDM. Cell viability was measured upon 24 h of incubation with the compounds using the CellTiter-Glo® 3D Cell Viability Assay (Promega, Madison, WI, USA), according to manufacturer instructions. Five percent DMSO was used as negative control and IMDM as positive control. IC50 was calculated for the racemic mixtures using a nonlinear regression fit for the Log10 transformation of the concentration values by using GraphPad Prism version 7.0 (GraphPad Software, La Jolla, CA, USA). Three independent experiments were performed.

Caco-2 cell monolayer = system: Caco-2 cell monolayer; parameters: method as in PMID 32234388; details: cited from earlier work
[2] = system: human liver microsomes (HLM); details: cited from earlier work
[3] = system: primary rat hepatocytes (PRH); details: read-out: EC50 (cytotoxic effects), racemic; cited from earlier work
[4] = system: 2D-HLCs (human stem-cell-derived hepatocyte-like cells); experiment: Cell viability (CellTiter-Glo 3D) in 2D monolayer HLCs; assay type: cell-based; details: racemate, 24 h, 0-20.0 mM
Method: as §4, §5

[5] = as above; assay type: cell-based, human; details: human; racemate, 2D-HLCs, 24 h exposure, 0-20.0 mM; read-out: EC50 (cytotoxicity)
Method: as §4, §5

[6] = Cell viability (CellTiter-Glo 3D) in 3D spheroid HLCs; assay type: cell-based, human; details: human; racemate, 3D-HLCs, 24 h exposure, 0-20.0 mM; read-out: EC50 (cytotoxicity)
Method: as §4, §5

[7] = cited from earlier work
[8] = system: human liver microsomes (HLM); experiment: Metabolism in ultra-pool human liver microsomes by GC-MS; assay type: in vitro ADME; details: HLM 1 mg protein/mL, 50 µM enantiomer, 0-60 min
Method: The metabolism of methylone and pentedrone was initially evaluated by incubation with ultra-pool human liver microsomes (HLM) at a final assay concentration of 1 mg protein/mL. All experiments were performed in duplicate. The incubation mixture with the HLM consisted of 1.3 mM NADP^+, 3.3 mM glucose-6-phosphate, 3.3 mM MgCl2, 0.4 IU/mL glucose-6-phosphate dehydrogenase, and 0.05 mM sodium citrate in 0.1 M phosphate buffer at pH 7.4. The incubation mixture with each drug was pre-incubated 10 min at 37 °C before the experiment was started with the addition of the HLM. All microsomes assays were incubated with 50 µM of each enantiomer in a final volume of 1 mL at 37 °C. At the time points 0, 5, 10, 20, 30, 40, 50, and 60 min, 100 µL aliquots of the incubations were quenched with 100 µL of ice-cold acetonitrile and methcathinone (internal standard) 100 µg/mL. The quenched solutions were centrifuged for 10 min at 4 °C and the supernatants were extracted with ethyl acetate after previous pH correction (pH = 11 for pentedrone and pH = 13 for methylone).
To study pentedrone and methylone metabolic profiles, we set up a methodology for the identification of pentedrone and methylone phase I metabolites based on a GC–MS methodology developed by Araujo et al. and Uralets et al. with some adaptations. […]

Molecule | preferential metabolic route of the enantiomer (2D-HLCs) | enantioselectivity in cytotoxicity (SH-SY5Y cells) | preferential metabolic route of the enantiomer (3D-HLCs) | enantioselectivity in intestinal absorption (permeability) (Caco-2 cell monolayer) | metabolite with the highest formation (2D-HLCs) | EC50 [3] [mM] | cytotoxicity compared to control cells [4] | EC50 at 24 h [5] [mM] | EC50 at 24 h [6] [mM] | concentrations at which cytotoxicity was observed [1] | metabolite with the highest formation (3D-HLCs) | liver-to-blood ratio [7] | phase I metabolites identified [8] | other results
CN[C@H](C)C(=O)c1ccc2c(c1)OCO2 [R-(+)-methylone] | preferentially metabolized by O-demethylation and N-hydroxylation | most cytotoxic | preferentially metabolized by all metabolic routes, except for O-demethylation | – | – | – | – | – | – | – | – | – | – | –
CCC[C@@H](NC)C(=O)c1ccccc1 [R-(−)-pentedrone] | preferentially metabolized by all metabolic routes | – | preferentially metabolized by β-keto reduction | most permeable | – | – | – | – | – | – | – | – | – | enantioselectivity in cytotoxicity ([1]; enantiomers at 1 mM, 3D cultures): most cytotoxic enantiomer
CCC[C@H](NC)C(=O)c1ccccc1 [S-(+)-pentedrone] | – | most cytotoxic | – | – | – | – | – | – | – | – | – | – | – | –
CNC(C)C(=O)c1ccc2c(c1)OCO2 (centres unmarked) [methylone] | – | – | – | – | N-Hydroxymethylone | 1.6 | significant cytotoxicity for all concentrations tested | 4.8 | 5.2 | > 3000 µM | N-Hydroxymethylone | ≤ 3 | N-hydroxymethylone, DHMC, dihydromethylone, and nor-methylone | enzymes metabolizing the drug [2]: initially metabolized by CYP2D6, with minor contributions of CYP1A2, CYP2B6, and CYP2C19
CCCC(NC)C(=O)c1ccccc1 (centres unmarked) [pentedrone] | – | – | – | – | dihydropentedrone | 0.7 | significant cytotoxicity for all concentrations tested | 2.8 | 3.6 | higher than 1.0 mM | dihydropentedrone | up to 11 | dihydropentedrone and nor-pentedrone | –
S-(−)-methylone | preferentially metabolized via N-demethylation | – | – | most permeable | – | – | – | – | – | – | – | – | – | –
